Source: US20260167926A1, “SPINAL CORD INJURY TREATMENT NEUROSPHERE” (KEIO UNIVERSITY, priority 2019, published 2026)

Legend:
[1] = system: human iPS cell-derived neurospheres; experiment: Neurite length after differentiation of neurospheres into neurons; assay type: cell-based; conditions: neurospheres cultured one day with inhibitor, then differentiated; 7th and 14th day; 201B7 and 414C2; compared to the untreated group
Protocol: Specifically, in an in vitro experimental system, human iPS cell-derived neurospheres were treated with a γ-secretase inhibitor and a p38 MAPK inhibitor to induce differentiation into neurons. Subsequently, the length of the neurite was measured and evaluated.
DAPT was used as the γ-secretase inhibitor. In addition, SB203580 (CAS Number: 152121-47-6) was used as the p38 MAPK inhibitor. First, human iPS cell-derived neurospheres were cultured for one day in the presence of the γ-secretase inhibitor alone, in the presence of the p38 MAPK inhibitor alone, or in the presence of the γ-secretase inhibitor and the p38 MAPK inhibitor.
Subsequently, various cells were seeded on a poly-L-ornithine/fibronectin-coated 48-well chamber slide (manufactured by Costar Corporation) at a cell density of 1×10^5 cells/mL, and the cells were cultured in a growth factor-free medium at in a 95% air environment at 37° C. and 5% CO2 for 14 days and were differentiated into neurons. Subsequently, on the 7th day and the 14th day after the initiation of differentiation induction, the cells were fixed with 4% paraformaldehyde in 0.1 M PBS, and the length of the neurite was measured.
FIG. 13A is a graph showing the results for neurons derived from 201B7 cells (n=5). In addition, FIG. 13B is a graph showing the results for neurons derived from 414C2 cells (n=5).

p38 MAPK [2] = experiment: Immunostaining of phosphorylated p38 MAPK in neurons derived from 201B7 neurospheres; assay type: cell-based, human; conditions: 201B7 neurospheres cultured one day at final concentration of 10 μM, differentiated 14 days
Protocol: Phosphorylation of p38 MAPK in human iPS cell-derived neurospheres treated with a γ-secretase inhibitor was examined.
Specifically, neurospheres derived from 201B7 cells, which are cells of a human iPS cell strain, were cultured for one day in the presence of a secretase inhibitor at a final concentration of 10 μM. Subsequently, the neurospheres were cultured in a growth factor-free medium in a 95% air environment at 37° C. and 5% CO2 for 14 days and were differentiated into nerurons. Subsequently, on the 14th day after the initiation of differentiation induction, the cells were fixed with 4% paraformaldehyde in 0.1 M PBS and observed. DAPT was used as the γ-secretase inhibitor. Immunostaining of phosphorylated p38 MAPK and βIII-tubulin was performed. In addition, Hoechst 33342 (CAS Number: 23491-52-3) was used to stain the cell nuclei.
FIG. 26 is representative microscopic images showing the results of immunostaining. In FIG. 26, “Pp38” represents phosphorylated p38 MAPK, and “Merge” indicates the results of superimposing microscopic images. The scale bar is 20 μm.

p38 MAPK [3] = experiment: Immunostaining of p38 MAPK, phosphorylated p38 MAPK and βIII-tubulin in differentiated cells; assay type: cell-based, human; conditions: 14 days after initiation of differentiation induction
Protocol: Immunostaining of p38 MAPK, phosphorylated p38 MAPK, and βIII-tubulin was performed using cells obtained 14 days after the initiation of differentiation induction. In addition, Hoechst 33342 (CAS Number: 23491-52-3) was used to stain the cell nuclei.
FIG. 14A and FIG. 14B are representative microscopic images showing the results of immunostaining of the cells in the GSI (+) group. In FIG. 14A and FIG. 14B, “Pp38” indicates phosphorylated p38 MAPK, and “Merge” indicates the results of superimposing microscopic images. The scale bar is 20μm.

| Compound | neurite outgrowth (length of the neurite) [1] | phosphorylation of p38 MAPK in neurons derived from the neurospheres (p38 MAPK [2]) | localization of p38-positive region relative to βIII-tubulin-positive neurons (p38 MAPK [3]) | localization of phosphorylated p38-positive region (p38 MAPK [3]) |
| --- | --- | --- | --- | --- |
| C[S+]([O-])c1ccc(-c2nc(-c3ccncc3)c(-c3ccc(F)cc3)[nH]2)cc1 (centres unmarked) [p38 MAPK inhibitor, SB203580] | significantly decreased | – | – | – |
| C[C@H](NC(=O)Cc1cc(F)cc(F)c1)C(=O)N[C@H](C(=O)OC(C)(C)C)c1ccccc1 [γ-secretase inhibitor, DAPT] | significantly large | enhanced | co-localized | in the nucleus |
